Measured values taken from US20050203110A1, “Mitotic kinesin inhibitors” (priority 2002, published 2005).

Molecular target: T1, human KSP motor domain (KSP(367H)) (Homo sapiens, UniProt P52732)
T1 construct: were used to amplify the motor domain and the neck linker region; made in house; host or cells: E. coli BL21 (DE3), pRSETa
T1 sequence (P52732 18-359 limits assumed): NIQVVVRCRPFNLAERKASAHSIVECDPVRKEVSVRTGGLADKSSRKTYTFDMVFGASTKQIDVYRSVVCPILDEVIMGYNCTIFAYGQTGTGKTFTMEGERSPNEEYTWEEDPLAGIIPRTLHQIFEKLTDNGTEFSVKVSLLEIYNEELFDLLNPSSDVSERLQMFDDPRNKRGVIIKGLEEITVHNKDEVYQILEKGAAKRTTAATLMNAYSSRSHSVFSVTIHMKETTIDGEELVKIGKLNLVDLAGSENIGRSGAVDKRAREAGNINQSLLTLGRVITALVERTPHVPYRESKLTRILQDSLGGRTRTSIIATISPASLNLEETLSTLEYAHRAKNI
Test: Kinesin ATPase In Vitro Assay
Assay type: biochemical
Conditions: kinesin motor domain with microtubules, 1 mM ATP, 23° C.; free phosphate by quinaldine red/ammonium molybdate, absorbance 540 nm
From the text: I. Kinesin ATPase In Vitro Assay
Cloning and Expression of Human Poly-Histidine Tagged KSP Motor Domain (KSP(367H))
Plasmids for the expression of the human KSP motor domain construct were cloned by PCR using a pBluescript full length human KSP construct (Blangy et al., Cell, vol. 83, pp1159-1169, 1995) as a template. The N-terminal primer 5′-[…] (SEQ.ID.NO.: 1) and the C-terminal primer 5′-[…] […] (SEQ.ID.NO.: 2) were used to amplify the motor domain and the neck linker region. The PCR products were digested with AseI and XhoI, ligated into the NdeI/XhoI digestion product of pRSETa (Invitrogen) and transformed into E. coli BL21 (DE3).
Cells were grown at 37° C. to an OD600 of 0.5. After cooling the culture to room temperature expression of KSP was induced with 100 μM IPTG and incubation was continued overnight. Cells were pelleted by centrifugation and washed once with ice-cold PBS. Pellets were flash-frozen and stored −80° C.
Cell pellets were thawed on ice and resuspended in lysis buffer (50 mM K-HEPES, pH 8.0, 250 mM KCl, 0.1% Tween, 10 mM imidazole, 0.5 mM Mg-ATP, 1 mM PMSF, 2 mM benzimidine, 1× complete protease inhibitor cocktail (Roche)). Cell suspensions were incubated with 1 mg/ml lysozyme and 5 mM β-mercaptoethanol on ice for 10 minutes, followed by sonication (3×30 sec). All subsequent procedures were performed at 4° C. Lysates were centrifuged at 40,000×g for 40 minutes. Supernatants were diluted and loaded onto an SP Sepharose column (Pharmacia, 5 ml cartridge) in buffer A (50 mM K-HEPES, pH 6.8, 1 mM MgCl2, 1 mM EGTA, 10 μM Mg-ATP, 1 mM DTT) and eluted with a 0 to 750 mM KCl gradient in buffer A. Fractions containing KSP were pooled and incubated with Ni-NTA resin (Qiagen) for one hour. The resin was washed three times with buffer B (Lysis buffer minus PMSF and protease inhibitor cocktail), followed by three 15-minute incubations and washes with buffer B. Finally, the resin was incubated and washed for 15 minutes three times with buffer C (same as buffer B except for pH 6.0) and poured into a column. […]
The kinesin motor domain is incubated with microtubules, 1 mM ATP (1:1 MgCl2:Na-ATP), and compound at 23° C. in buffer containing 80 mM K-HEPES (pH 7.0), 1 mM EGTA, 1 mM DTT, 1 mM MgCl2, and 50 mM KCl. […] Free phosphate from the ATP hydrolysis reaction is measured via a quinaldine red/ammonium molybdate assay by adding 150 μl of quench C buffer containing a 2:1 ratio of quench A:quench B. Quench A contains 0.1 mg/ml quinaldine red and 0.14% polyvinyl alcohol; quench B contains 12.3 mM ammonium molybdate tetrahydrate in 1.15 M sulfuric acid. The reaction is incubated for 10 minutes at 23° C., and the absorbance of the phospho-molybdate complex is measured at 540 nm.

SMILES | IC50 [µM]
CCC(c1nc2cnccc2c(=O)n1Cc1ccccc1)N(CCN(C)C)C(=O)c1ccc(Br)cc1 (racemic) [Compound 3-7, 2-[1′-(N-4-bromobenzoyl)-(N,N-dimethylethylenediamino)propyl]-3-benzyl-pyrido[3,4-d]pyrimidin-4(3H)-one] | ≤ 50
CCC(c1nc2ncccc2c(=O)n1Cc1ccccc1)N(CCN(C)C)C(=O)c1ccc(Br)cc1 (stereo not shown) [Compound 1-6, N-[1-(3-benzyl-4-oxo-3,4-dihydropyrido[2,3-d]pyrimidin-2-yl)propyl]-4-bromo-N-[2-(dimethylamino)ethyl]benzamide] | ≤ 50
CCC(c1nc2c(c(=O)n1Cc1ccccc1)CCCN2)N(CCN(C)C)C(=O)c1ccc(Br)cc1 (stereo not shown) [Compound 2-2, N-[1-(3-benzyl-4-oxo-3,4,5,6,7,8-hexahydropyrido[2,3-d]pyrimidin-2-yl)propyl]4-bromo-N-[2-(dimethylamino)ethyl]benzamide] | ≤ 50
CCC(c1nc2cccnc2c(=O)n1Cc1ccccc1)N(CCN(C)C)C(=O)c1ccc(Br)cc1 (stereo not shown) [Compound 5-6, N-[1-(3-benzyl-4-oxo-3,4-dihydropyrido[3,2-d]pyrimidin-2-yl)propyl]-4-bromo-N-[2-(dimethylamino)ethyl]benzamide] | ≤ 50
